Measurements taken from ChEMBL document CHEMBL1146627, “Synthesis and structure-activity relationships of 1-arylmethyl-3-(1-methyl-2-amino)ethyl-5-aryl-6-methyluracils as antagonists of the human GnRH Receptor” (Bioorg Med Chem Lett, 2003).

Biological target: T1, Gonadotropin-releasing hormone receptor (Homo sapiens, UniProt P30968)
T1 sequence (P30968 whole entry): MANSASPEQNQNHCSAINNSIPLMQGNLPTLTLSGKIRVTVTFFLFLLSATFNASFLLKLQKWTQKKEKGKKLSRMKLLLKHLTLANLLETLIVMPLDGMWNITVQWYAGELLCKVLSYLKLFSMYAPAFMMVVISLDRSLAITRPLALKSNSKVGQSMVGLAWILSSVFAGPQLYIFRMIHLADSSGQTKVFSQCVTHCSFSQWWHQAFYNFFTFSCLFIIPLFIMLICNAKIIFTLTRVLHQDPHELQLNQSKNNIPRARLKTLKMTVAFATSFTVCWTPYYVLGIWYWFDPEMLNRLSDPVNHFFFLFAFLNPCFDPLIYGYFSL
Test: Binding affinity towards human gonadotropin-releasing hormone receptor expressed in HEK293 cells
Format: cell-based

Structure (SMILES)	Ki
COc1cccc(-c2c(C)n(Cc3c(F)cccc3F)c(=O)n([C@@H](C)CNCC(C)C)c2=O)c1	1.2 µM
COc1cccc(-c2c(C)n(Cc3c(F)cccc3F)c(=O)n([C@H](C)CNC3CCCC3)c2=O)c1	0.43 µM
COc1cccc(-c2c(C)n(Cc3c(F)cccc3F)c(=O)n([C@@H](C)CNCc3ccccc3F)c2=O)c1	0.55 µM
COc1cccc(-c2c(C)n(Cc3c(F)cccc3F)c(=O)n([C@@H](C)CN(C)CC3CC3)c2=O)c1	7 µM
COc1cccc(-c2c(C)n(Cc3c(F)cccc3F)c(=O)n([C@@H](C)CN(C)Cc3ccccc3)c2=O)c1	2 µM
COc1cccc(-c2c(C)n(Cc3c(F)cccc3F)c(=O)n([C@@H](C)CNC3CCCC3)c2=O)c1	0.95 µM
COc1cccc(-c2c(C)n(Cc3c(F)cccc3F)c(=O)n([C@@H](C)CNCC3CC3)c2=O)c1	1.6 µM
COc1cccc(-c2c(C)n(Cc3c(F)cccc3F)c(=O)n(C3CCNC3)c2=O)c1 (stereo unspecified)	15 µM
COc1cccc(-c2c(C)n(Cc3c(F)cccc3F)c(=O)n([C@H](C)CNCC3CC3)c2=O)c1	0.78 µM
COc1cccc(-c2c(C)n(Cc3c(F)cccc3F)c(=O)n([C@@H](C)CNCc3ccccc3C)c2=O)c1	0.4 µM
COc1cccc(-c2c(C)n(Cc3c(F)cccc3F)c(=O)n([C@H](C)CN(C)CC3CC3)c2=O)c1	0.59 µM
COc1cccc(-c2c(C)n(Cc3c(F)cccc3F)c(=O)n(C3CCN(CCc4ccccn4)C3)c2=O)c1 (stereo unspecified)	8.3 µM
COc1ccc(CNC[C@@H](C)n2c(=O)c(-c3cccc(OC)c3)c(C)n(Cc3c(F)cccc3F)c2=O)cc1	0.72 µM
COc1cccc(-c2c(C)n(Cc3c(F)cccc3F)c(=O)n([C@@H](C)CN(C)CCc3ccccn3)c2=O)c1	1.8 µM
COc1cccc(-c2c(C)n(Cc3c(F)cccc3F)c(=O)n([C@@H](C)CNCc3ccccc3)c2=O)c1	0.37 µM

Now those with a lower Ki, led by results:

Ki	Structure (SMILES)
0.25 µM	COc1cccc(-c2c(C)n(Cc3c(F)cccc3F)c(=O)n([C@H](C)CNCc3ccc(F)cc3)c2=O)c1
0.005 µM	COc1cccc(-c2c(C)n(Cc3c(F)cccc3F)c(=O)n(C[C@H](C)N(C)CCc3ccccn3)c2=O)c1
0.085 µM	COc1cccc(-c2c(C)n(Cc3c(F)cccc3F)c(=O)n([C@H](C)CNCc3cccc(F)c3)c2=O)c1
0.09 µM	COc1cccc(-c2c(C)n(Cc3c(F)cccc3F)c(=O)n([C@H](C)CNCc3ccccc3F)c2=O)c1
0.02 µM	COc1cccc(CNC[C@@H](C)n2c(=O)c(-c3cccc(OC)c3)c(C)n(Cc3c(F)cccc3F)c2=O)c1
0.19 µM	COc1cccc(-c2c(C)n(Cc3c(F)cccc3F)c(=O)n([C@H](C)CNCC(C)C)c2=O)c1
0.15 µM	COc1cccc(-c2c(C)n(Cc3c(F)cccc3F)c(=O)n([C@H](C)CN(C)Cc3ccccc3)c2=O)c1
0.28 µM	COc1cccc(-c2c(C)n(Cc3c(F)cccc3F)c(=O)n(C3CCN(Cc4ccccc4)C3)c2=O)c1 (stereo unspecified)
0.075 µM	COc1cccc(-c2c(C)n(Cc3c(F)cccc3F)c(=O)n([C@H](C)CNCc3ccccc3)c2=O)c1
0.07 µM	COc1cccc(-c2c(C)n(Cc3c(F)cccc3F)c(=O)n([C@H](C)CNCc3ccccc3C)c2=O)c1
0.02 µM	COc1cccc(-c2c(C)n(Cc3c(F)cccc3F)c(=O)n([C@H](C)CN(C)CCc3ccccn3)c2=O)c1
